Molecules are shown by their SMILES. Read-outs that look alike come from different tables or passages of the source.

The values below come from US20040127439A1, “Introduction of the wld gene for prevention of axonal degeneration in neurological diseases” (priority 2004, published 2004).

In data set [1] the test system is DRG neurites. The note with it: for Area (DRG neuritic halo) / Length (longest neurite): Vin 0.01 μM, EGTA 2 mM. The procedure:
On the day of DRG culture, the dishes are washed twice with PBS buffer (pH 7.4), filled with 550 μl medium and pre-incubated at 37 C for at least 2 hours. Fifteen-day old embryos (E15) are removed from pregnant Sprague-Dawley rats (Charles River), and spinal cords with cervical and thoracic DRGs attached are dissected into Leibovitz L-15 medium (GIBCO). Ganglia are separated from the spinal cord, stripped of their connective tissue sheaths and roots, and are then pooled and washed twice with PBS buffer (pH 7.4). DRGs are plated (4 per dish) in culture media and incubated at 37° C. in 5% carbon dioxide for 4 hours to allow DRGs to attach to the substrate. Medium is then added to bring the total volume to 1 ml. […] Calcium-free medium is prepared in the same manner, replacing MEM with S-MEM (GIBCO).
At the end of the treatment period (see below) DRGs are fixed for 30 minutes with 4% paraformaldehyde. Cultures are then rinsed with 0.1M TBS buffer, and treated sequentially with 3% H2O2, TBS-Triton, and 4% normal goat serum (NGS), each for 30 minutes at room temperature. DRGs are incubated at 4 C overnight in monoclonal antibody to MAP5 (1:500, Sigma). After washing in TBS-Triton, DRGs are incubated for 60 minutes in biotinylated secondary antibody, rinsed with TBS and reacted with avidin-biotin complex solution (ABC; Vector Labs) for one hour. Color is generated by incubation for 10 minutes in diaminobenzidine (DAB) solution, enhanced by addition of 0.025% cobalt chloride and 0.02% nickel ammonium sulfate. Stained tissue is rinsed, air dried and cover-slipped for microscopy with Crystal/Mount (Biomeda).
This method of allowing neuritic extension to proceed before addition of a neurotoxin tests the effect of the toxin on established neurites as opposed to the effect on primary neuritic outgrowth.
After day 5 of culture, the media is changed to that containing the experimental treatment. This date is defined as treatment day 0. Cultures are monitored and imaged daily using video microscopy. […] AK 295 (Z-leu-Abu-(CH2)3-4-morpholinyl, gift of Dr. James Powers, Georgia Institute of Technology), is dissolved in 100% DMSO and is then diluted to its final concentration with culture medium. The final concentration of DMSO is 0.05%. Phenylmethylsulfonyl fluoride (PMSF) is manufactured by and commercially available from Sigma.
After 6 days of treatment (11 days in culture) immunostained DRGs are quantitated for degree of axonal degeneration. Images of the DRGs and neurites are captured onto disk using a computerized video imaging system, and are analyzed using NIH Image version 1.61. DRG areas are calculated by tracing the outside circumference of the remaining culture halo. The length of the longest neurite of each DRG is measured from the center of the DRG to the distal end of the neurite, so that cultures without remaining neurites still have positive values. These quantitative data are subjected to ANOVA, with post-test correction for multiple comparisons.

The next data set has as its system axotomized neurites. Nature of the data set: Wallerian degeneration of axotomized DRG neurites in culture. The class given is cell-based, rat. The note with it: added at the time of axotomy; EGTA 2 mM or AK295 50 μM; 72 hours after axotomy. The method, then: Five-day old cultures with extended neurites are used. Neurites are cut by excising and removing the DRG with a scalpel blade. Care should be taken to remove substantially all neurons within the DRG. At least 1 ganglion/dish was left unaxotomized to serve as a control for that group of ganglia. For experiments involving therapeutic interventions, the media is changed just prior to axotomy to media containing either EGTA (2 mM) or AK295 (50 μM). Cultures are observed daily for 72 hours after axotomy, at which time they are fixed and immunostained.
Stained cultures are scored blindly for degree of axonal degeneration. […] Any fibers with interruptions along their length are scored as degenerated. The number of surviving fibers in each DRG are counted under 200× magnification, and the DRG is given a survival score of 0-3: 0 =no fibers remaining, 1=1-4 fibers remaining, 2=5-9 fibers remaining, 3=10 or more fibers remaining.

In data set [2] the test system is DRG neurites. Nature of the data set: Effect of treatment modalities on DRG area and neuritic length in control cultures (no vincristine). In kind it is cell-based, rat. The conditions noted are these: for Area / Length: added to 5-day old cultures, after 6 days of treatment, no vincristine; for effects on neurite growth or survival in control cultures (in words): addition to control cultures. From the text:
This date is defined as treatment day 0. Cultures are monitored and imaged daily using video microscopy. […] The final concentration of DMSO is 0.05%.

[3] abbreviates: Day 3 of treatment, AK295 50 μM.
Where [4] appears, read: Day 4 of treatment, AK295 50 μM.
Where [5] appears, read: Day 6 of treatment, AK295 50 μM, PMSF 50 μM.

As to `CCC(NC(=O)[C@H](CC(C)C)NC(=O)OCc1ccccc1)C(=O)C(=O)NCCCN1CCOCC1` (stereo partly shown) [AK295, Z-leu-Abu-(CH2)3-4-morpholinyl], the “prevention of vincristine-induced axonal degeneration (in words)” value with DRG neurites [1] (AK295 1 μM (not shown)) was “ineffective”; in the data set on DRG neurites [1] (AK295 10 μM (not shown)) it was “effective in preventing axonal degeneration”; in the data set on DRG neurites [1] (AK295 50 μM), “effective in preventing axonal degeneration”. Also, the entries for the “Area (DRG neuritic halo)” value in the data set with DRG neurites [1] (setting [3]), in the data set with DRG neurites [1] (setting [4]) and with DRG neurites [1] (setting [5]) were 16.61 ± 1.18 (18) mm^2, 14.77 ± 2.19 (14) mm^2 and 10.34 ± 2.14 (12) mm^2, respectively. Moreover, the “Length (longest neurite)” value with DRG neurites [1] (setting [3]) is on record as 2.65 ± 0.11 mm; in the data set on DRG neurites [1] (setting [4]), 2.45 ± 0.25 mm; with DRG neurites [1] (setting [5]), 2.05 ± 0.25 mm. In addition, in the data set on axotomized neurites, the “protection against Wallerian degeneration (in words)” value was “as protective as EGTA”. Besides, the Area with DRG neurites [2] is reported as 49.18 ± 2.69 mm^2. The molecule also came in with a Length in the data set on DRG neurites [2] of 4.80 ± 0.16 mm. Also, the “effects on neurite growth or survival in control cultures (in words)” value with DRG neurites [2] was “no effects on neurite growth or survival”.

Turning to `O=C(O)CN(CCOCCOCCN(CC(=O)O)CC(=O)O)CC(=O)O` [EGTA], in the data set with DRG neurites [1] (setting [3]), the “Area (DRG neuritic halo)” value is on record as 15.05 ± 1.78 (12) mm^2 and the “Length (longest neurite)” value came to 2.62 ± 0.17 mm. For the same molecule, in the data set with DRG neurites [1] (setting [4]), the “Area (DRG neuritic halo)” value stood at 12.97 ± 0.94 mm^2 and the “Length (longest neurite)” value worked out at 2.44 ± 0.13 mm. For the same molecule, in the data set on DRG neurites [1] (setting [5]), the “Area (DRG neuritic halo)” value was 13.36 ± 1.04 (14) mm^2 and the “Length (longest neurite)” value came out at 2.43 ± 0.07 mm. Also, the “protection against vincristine-induced axonal degeneration (in words)” value with DRG neurites [1] (EGTA 2 mM in standard media) was “as effective as calcium-free media”. In addition, in the data set on DRG neurites [1] (EGTA ≦1 mM in standard media), the “protection against vincristine-induced axonal degeneration (in words)” value is listed as “ineffective”. For the same molecule, in the data set with axotomized neurites, the “protection against Wallerian degeneration (in words)” value is on record as “significant protection”. In the data set on DRG neurites [2], the Area is 44.40 ± 2.74 mm^2, the Length is given as 4.74 ± 0.18 mm and the “effects on neurite growth or survival in control cultures (in words)” value is listed as “no effects on neurite growth or survival”.

Take `O=S(=O)(F)Cc1ccccc1` [PMSF, Phenylmethylsulfonyl fluoride]: in the data set with DRG neurites [1] (setting [5]), the “Area (DRG neuritic halo)” value is 0.73 ± 0.16 (43) mm^2 and the “Length (longest neurite)” value amounted to 0.55 ± 0.06 mm. The “protection against vincristine-induced axonal degeneration (in words)” value in the data set with DRG neurites [1] (PMSF 50 μM, day 6) is recorded as “no protective effects”.
